25 compounds from patent US9156822B2, “Functionally selective ligands of dopamine D2 receptors” (The University of North Carolina at Chapel Hill, priority 2010, dated 2015) can be followed below.

SMILES strings stand for the structures. Like-named read-outs stand apart in the source and are kept apart here.

A short description of one data set: in vivo. To be noted: mouse.
The target in data set [1] is T1, D2 receptors (Homo sapiens (Human), UniProt P14416). Nature of the data set: D2 β-arrestin recruitment (Tango) assay. The format is cell-based. The conditions noted are these: for Emax: normalized to quinpirole (100%). On the procedure: The next day, cells were plated in white, clear-bottom, 384-well plates (Greiner, 10,000 cells/well, 50 μl/well) in DMEM containing 1% dialyzed fetal bovine serum. […] Data were normalized to vehicle (0%) and quinpirole (100%) controls and regressed using the sigmoidal dose-response function built into GraphPad Prism 4.0.
Target sequence in this assay (P14416 whole entry, looked up): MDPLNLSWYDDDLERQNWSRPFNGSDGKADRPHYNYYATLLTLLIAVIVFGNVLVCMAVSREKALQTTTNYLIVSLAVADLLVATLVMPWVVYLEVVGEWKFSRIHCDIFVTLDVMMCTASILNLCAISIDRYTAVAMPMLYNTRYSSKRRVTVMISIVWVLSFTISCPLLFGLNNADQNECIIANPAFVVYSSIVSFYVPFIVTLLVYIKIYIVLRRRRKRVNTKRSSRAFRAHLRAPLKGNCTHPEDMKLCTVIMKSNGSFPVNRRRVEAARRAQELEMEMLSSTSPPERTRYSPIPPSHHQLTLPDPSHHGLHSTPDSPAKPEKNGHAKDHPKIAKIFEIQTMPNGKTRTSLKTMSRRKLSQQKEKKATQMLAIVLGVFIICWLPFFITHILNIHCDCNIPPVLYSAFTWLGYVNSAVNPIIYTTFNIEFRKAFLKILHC
On the technique in general: Activated receptors often draw arrestin, which recruitment assays turn into a signal.

The target in another data set is hD2 receptors (Homo sapiens (Human), UniProt P14416). Nature of the data set: D2 mediated cAMP GloSensor assay. On cAMP (GloSensor) activity in words (merged EC50/Emax cell): key: neutral: Neutral ligands are either antagonists or are inactive. The conditions noted are these: for EC50: HEK293T, isoproterenol-stimulated cAMP; for Emax: normalized to quinpirole, negative = inverse agonist, read-out: cAMP (GloSensor) Emax. The format is cell-based.
The target of data set [2] is T1, D2 receptors. The experiment in a line: CHO-D2 radioligand binding assay ([3H]N-methylspiperone competition). The conditions noted are these: CHO-D2 membranes, [3H]N-methylspiperone; read-out: D2 Binding Ki ± SEM.
Target sequence in this assay (P14416 whole entry): as the sequence (P14416 whole entry, looked up) above
Setting [3] is: HTLA cells, read-out: β-arrestin (Tango) EC50.

Chain of hD2 receptors (P14416 whole entry): as the sequence (P14416 whole entry, looked up) above

For orientation: AUC(0-inf) means total exposure, with the tail of the curve extrapolated. As a reminder, the AUC(0-t) is exposure summed from dosing to a finite time, without extrapolation to infinity. The low end stands for less exposure, the high end for more exposure. The Cmax is the highest concentration seen after dosing. The term Tmax denotes the time from dosing to the highest level. Turning to `O=C1CCc2ccc(OCCCCN3CCN(c4cccc(Cl)c4Cl)CC3)cc2N1` [Aripiprazole, aripiprazole, reference compound], in “in vivo” (brain), the AUC(0-inf) amounted to 1180 ng·h/mL, the AUC(0-t) was found to be 1100 ng·h/mL, the Cmax worked out at 166 ng/mL and the Tmax worked out at 30 min. Moreover, in “in vivo” (plasma), the AUC(0-inf) was 445 ng·h/mL, the AUC(0-t) amounted to 431 ng·h/mL, the Cmax is 75.6 ng/mL and the Tmax was 15 min.

The term melting point denotes the temperature, or range, at which the solid turns liquid. For the compound `O=C1CCc2ccc(OCCCN3CCCN(c4cccc(Cl)c4Cl)CC3)cc2N1` [Compound 1, 7-(3-(4-(2,3-dichlorophenyl)-1,4-diazepan-1-yl)propoxy)-3,4-dihydroquinolin-2(1H)-one], the melting point was in the range of 130 to 131 °C.

With `O=C1NCCc2ccc(OCCCCN3CCCN(c4cccc(Cl)c4Cl)CC3)cc21` [Compound 6, 7-(4-(4-(2,3-dichlorophenyl)-1,4-diazepan-1-yl)butoxy)-3,4-dihydroisoquinolin-1(2H)-one], the melting point is 86 to 88 °C.

With `Clc1cccc(N2CCCN(CCCCOc3ccc4scnc4c3)CC2)c1Cl` [Compound 7, 5-(4-(4-(2,3-dichlorophenyl)-1,4-diazepan-1-yl)butoxy)benzo[d]thiazole], the melting point lay in the range of 82 to 84 °C.

Usually EC50 stands for the concentration giving half of the maximal effect. For orientation: Emax means the greatest response seen or fitted, relative to the assay's reference. As usually defined, the Ki is the equilibrium dissociation constant of an inhibitor or competing ligand from its target. With `COc1ccccc1N1CCCN(CCCCOc2ccc3c(c2)NC(=O)CC3)CC1` [Compound 9, 7-(4-(4-(2-methoxyphenyl)-1,4-diazepan-1-yl)butoxy)-3,4-dihydroquinolin-2(1H)-one], the EC50 was found to be 4.6 nM at D2 receptors [1] (setting [3]) and 163 nM on hD2 receptors. Besides, the Emax was 26% on D2 receptors [1] and -63% on hD2 receptors. In addition, the Ki at D2 receptors [2] was determined as 4 nM.

Turning to `COc1ccccc1N1CCCN(CCCCOc2ccc3ccc(=O)[nH]c3c2)CC1` [Compound 10, 7-(4-(4-(2-methoxyphenyl)-1,4-diazepan-1-yl)butoxy)quinolin-2(1H)-one], the Emax at D2 receptors [1] worked out at 16%.

With `COc1ccccc1N1CCCN(CCCCOc2ccc3c(n2)NC(=O)CC3)CC1` [Compound 11, 7-(4-(4-(2-methoxyphenyl)-1,4-diazepan-1-yl)butoxy)-3,4-dihydro-1,8-naphthyridin-2(1H)-one], the Emax on D2 receptors [1] is 21%; at hD2 receptors, -118%.

Take `CCOc1ccccc1N1CCCN(CCCCOc2ccc3c(c2)NC(=O)CC3)CC1` [Compound 12, 7-(4-(4-(2-ethoxyphenyl)-1,4-diazepan-1-yl)butoxy)-3,4-dihydroquinolin-2(1H)-one]: at D2 receptors [1] (setting [3]), the half-maximal effective concentration (EC50) is 4.3 nM. Moreover, on D2 receptors [1], the Emax turned out to be 41%. Also, at hD2 receptors, the “cAMP (GloSensor) activity in words (merged EC50/Emax cell)” value (“cAMP … (merged EC50/Emax cell)” below) is on record as “neutral”. On D2 receptors [2], the Ki is 4.1 ± 0.2 nM.

Regarding `CCOc1ccccc1N1CCCN(CCCCOc2ccc3c(n2)NC(=O)CC3)CC1` [Compound 13, 7-(4-(4-(2-ethoxyphenyl)-1,4-diazepan-1-yl)butoxy)-3,4-dihydro-1,8-naphthyridin-2(1H)-one], the EC50 at D2 receptors [1] (setting [3]) is 4 nM. For the same compound, at D2 receptors [1], the Emax is 43%. On hD2 receptors, the “cAMP … (merged EC50/Emax cell)” value is on record as “neutral”. Moreover, on D2 receptors [2], the Ki was 4.4 ± 0.3 nM.

In the case of `CCOc1ccccc1N1CCCN(CCCCOc2ccc3ccc(=O)[nH]c3c2)CC1` [Compound 14, 7-(4-(4-(2-ethoxyphenyl)-1,4-diazepan-1-yl)butoxy)quinolin-2(1H)-one], the Emax at D2 receptors [1] was found to be 58%.

Turning to `CC(C)Oc1ccccc1N1CCCN(CCCCOc2ccc3c(c2)NC(=O)CC3)CC1` [Compound 16, 7-(4-(4-(2-isopropoxyphenyl)-1,4-diazepan-1-yl)butoxy)-3,4-dihydroquinolin-2(1H)-one], on D2 receptors [1] (setting [3]), the EC50 stood at 4.2 nM. Besides, the Emax at D2 receptors [1] stood at 53%. In addition, the “cAMP … (merged EC50/Emax cell)” value at hD2 receptors is “neutral”. Further, the Ki on D2 receptors [2] came out at 0.87 ± 0.04 nM.

On to `CC(C)Oc1ccccc1N1CCCN(CCCCOc2ccc3c(n2)NC(=O)CC3)CC1` [Compound 17, 7-(4-(4-(2-isopropoxyphenyl)-1,4-diazepan-1-yl)butoxy)-3,4-dihydro-1,8-naphthyridin-2(1H)-one], for which the EC50 on D2 receptors [1] (setting [3]) was 4.6 nM; at hD2 receptors it was 0.2 nM. Besides, the Emax on D2 receptors [1] was found to be 56%; on hD2 receptors, 18%. Also, the Ki at D2 receptors [2] was found to be 1.29 ± 0.03 nM.

`CC(C)Oc1ccccc1N1CCCN(CCCCOc2ccc3ccc(=O)[nH]c3c2)CC1` [Compound 18, 7-(4-(4-(2-isopropoxyphenyl)-1,4-diazepan-1-yl)butoxy)quinolin-2(1H)-one]: the results for the EC50 at D2 receptors [1] (setting [3]) and on hD2 receptors were 4.2 nM and 0.1 nM, respectively. In addition, the Emax stood at 58% on D2 receptors [1] and 32% at hD2 receptors. Besides, the Ki at D2 receptors [2] was 0.93 ± 0.03 nM.

In the case of `O=c1[nH]c2ccc(OCCCCN3CCC(c4cccc(Cl)c4Cl)CC3)cc2[nH]1` [Compound 24, 5-(4-(4-(2,3-dichlorophenyl)piperidin-1-yl)butoxy)-1H-benzo[d]imidazol-2(3H)-one], the melting point was 180 to 182 °C.

With `O=C1NCCc2ccc(OCCCCN3CCN(c4cccc(Cl)c4Cl)CC3)cc21` [Compound 25, 7-(4-(4-(2,3-dichlorophenyl)piperazin-1-yl)butoxy)-3,4-dihydroisoquinolin-1(2H)-one], on D2 receptors [1], the “β-arrestin (Tango) % activ at 1 μM” value worked out at 12% and the Emax was 55%. Further, at D2 receptors [1] (setting [3]), the EC50 is 18 nM. Besides, on hD2 receptors, the EC50 is 3700 nM and the Emax was -74%. Moreover, the Ki at D2 receptors [2] came to 18 ± 3 nM.

Take `O=C1CCc2ccc(OCC3CCC(CN4CCN(c5cccc(Cl)c5Cl)CC4)CC3)cc2N1` (stereo not shown) [Compound 26, 7-((4-((4-(2,3-dichlorophenyl)piperazin-1-yl)methyl)cyclohexyl)methoxy)-3,4-dihydroquinolin-2(1H)-one]: on D2 receptors [1], the “β-arrestin (Tango) % activ at 1 μM” value was determined as 6% and the Emax was determined as 51%. In addition, at D2 receptors [1] (setting [3]), the EC50 was determined as 2100 nM. Moreover, on hD2 receptors, it took 46000 nM to reach a half-maximal effect (EC50) and the Emax is -25%. Moreover, the Ki on D2 receptors [2] was 145 ± 22 nM.

For the compound `Clc1cccc(N2CCN(CCCCOc3ccc4cn[nH]c4c3)CC2)c1Cl` [Compound 28, 6-(4-(4-(2,3-dichlorophenyl)piperazin-1-yl)butoxy)-1H-indazole], the “β-arrestin (Tango) % activ at 1 μM” value on D2 receptors [1] is listed as 18%. Also, the EC50 amounted to 92 nM at D2 receptors [1] (setting [3]) and 5.7 nM at hD2 receptors. The Emax was 65% on D2 receptors [1] and -29% on hD2 receptors. In addition, on D2 receptors [2], the Ki amounted to 66 ± 10 nM.

Turning to `O=C1CCc2ccc(Oc3ccc(CN4CCN(c5cccc(Cl)c5Cl)CC4)cc3)cc2N1` [Compound 31, 7-(4-((4-(2,3-dichlorophenyl)piperazin-1-yl)methyl)phenoxy)-3,4-dihydro quinolin-2(1H)-one], on D2 receptors [1], the “β-arrestin (Tango) % activ at 1 μM” value is listed as 16% and the Emax came to 49%. Also, the EC50 on D2 receptors [1] (setting [3]) worked out at 399 nM. Also, on hD2 receptors, the EC50 was determined as 5.7 nM and the Emax was -47%. The Ki on D2 receptors [2] is 108 ± 18 nM.

Regarding `O=C1NCCc2ccc(OCCCN3CCN(c4cccc(Cl)c4Cl)CC3)cc21` [Compound 32, 7-(3-(4-(2,3-dichlorophenyl)piperazin-1-yl)propoxy)-3,4-dihydroisoquinolin-1(2H)-one], on D2 receptors [1], the “β-arrestin (Tango) % activ at 1 μM” value stood at 44% and the Emax was 83%. For the same compound, the EC50 on D2 receptors [1] (setting [3]) came out at 30 nM. The “cAMP … (merged EC50/Emax cell)” value on hD2 receptors is recorded as “neutral”. At D2 receptors [2], the inhibition constant (Ki) came out at 18 ± 2 nM.

As for `O=c1[nH]c2ccc(OCCCN3CCN(c4cccc(Cl)c4Cl)CC3)cc2[nH]1` [Compound 34, 5-(3-(4-(2,3-dichlorophenyl)piperazin-1-yl)propoxy)-1H-benzo[d]imidazol-2(3H)-one], on D2 receptors [1], the EC50 was 52 nM, the “β-arrestin (Tango) % activ at 1 μM” value is 36% and the Emax is 78%. Also, on hD2 receptors, it took 512 nM to reach a half-maximal effect (EC50) and the Emax came to 25%. On D2 receptors [2], the Ki was determined as 25 ± 3 nM.

As for `O=c1[nH]c2ccc(OCCCCN3CCN(c4cccc(Cl)c4Cl)CC3)cc2[nH]1` [Compound 35], the “β-arrestin (Tango) % activ at 1 μM” value on D2 receptors [1] came to 19%. Also, the EC50 at D2 receptors [1] (setting [3]) worked out at 16 nM. The “cAMP … (merged EC50/Emax cell)” value on hD2 receptors is reported as “neutral”. Moreover, the Ki at D2 receptors [2] is 15 ± 3 nM.

Regarding `COc1ccccc1N1CCN(CCCCOc2ccc3c(n2)NC(=O)CC3)CC1` [Compound 37], on D2 receptors [1], the EC50 came out at 1 nM and the Emax is 67%. For the same compound, at hD2 receptors, the EC50 turned out to be 11 nM and the Emax is 17%. For the same compound, on D2 receptors [2], the Ki turned out to be 1.7 ± 0.1 nM.

`O=C1CCc2ccc(OCCCCN3CCN(c4cccc5c4OCCO5)CC3)cc2N1` [Compound 40, 7-(4-(4-(2,3-dihydrobenzo[b][1,4]dioxin-5-yl)piperazin-1-yl)butoxy)-3,4-dihydroquinolin-2(1H)-one]: the EC50 on D2 receptors [1] (setting [3]) was 1.5 nM. In addition, the Emax at D2 receptors [1] was 33%. Besides, the “cAMP … (merged EC50/Emax cell)” value on hD2 receptors is listed as “neutral”. Besides, at D2 receptors [2], the Ki was 0.3 ± 0.02 nM.

As for `O=C1CCc2ccc(OCCCCN3CCN(c4cccc5c4OCCO5)CC3)nc2N1` [Compound 41, 7-(4-(4-(2,3-dihydrobenzo[b][1,4]dioxin-5-yl)piperazin-1-yl)butoxy)-3,4-dihydro-1,8-naphthyridin-2(1H)-one], the EC50 on D2 receptors [1] (setting [3]) was determined as 0.6 nM; at hD2 receptors, 0.4 nM. In addition, the Emax at D2 receptors [1] is 31%; at hD2 receptors, -19%. Further, the Ki on D2 receptors [2] was determined as 0.45 ± 0.02 nM.

Turning to `CC(=O)Nc1cc(OCCCCN2CCN(c3cccc(Cl)c3Cl)CC2)ccc1C` [Compound 43, N-(5-(4-(4-(2,3-dichlorophenyl)piperazin-1-yl)butoxy)-2-methylphenyl)acetamide], the EC50 on D2 receptors [1] (setting [3]) came to 9.2 nM. Also, the Emax at D2 receptors [1] was 59%. In addition, the “cAMP … (merged EC50/Emax cell)” value on hD2 receptors is given as “neutral”. On D2 receptors [2], the Ki worked out at 72 ± 4 nM.
